Results: patent US11180504B2 (ORCHID PHARMA LTD., priority 2016, dated 2021)
Values after ≈ are worked out from the molar mass of the structure shown. Like-named read-outs stand apart in the source and are kept apart here.

Assays:
[1] = tested on: carbapenem sensitive Pseudomonas aeruginosa; test: MIC by broth micro-dilution (CLSI), carbapenem sensitive P. aeruginosa; assay type: cell-based; details: Pseudomonas aeruginosa
[2] = tested on: methicillin-sensitive Staphylococcus aureus; test: MIC by broth micro-dilution (CLSI), methicillin-sensitive S. aureus; assay type: cell-based; details: Staphylococcus aureus, ATCC 29213 / MSSA
[3] = tested on: carbapenemase producing K. pneumoniae; test: MIC by broth micro-dilution (CLSI), carbapenemase producing K. pneumoniae; assay type: cell-based, Klebsiella pneumoniae; details: Klebsiella pneumoniae
[4] = tested on: extended spectrum β lactamase (ESBL) SHV18 producing Klebsiella pneumoniae; test: MIC by broth micro-dilution (CLSI), ESBL SHV18 producing K. pneumoniae; assay type: cell-based; details: Klebsiella pneumoniae, ATCC700603, 22 h
[5] = tested on: carbapenem sensitive Escherichia coli; test: MIC by broth micro-dilution (CLSI), carbapenem sensitive E. coli; assay type: cell-based; details: Escherichia coli
[6] = ATCC27853, Meropenem susceptible P. aeruginosa ATCC27853, read-out: MIC
[7] = MSSA S. aureus ATCC29213, read-out: MIC
[8] = ATCCBAA1705, KPC-2 K. pneumoniae ATCC BAA-1705, read-out: MIC
[9] = ESBL +ve (SHV-18) K. pneumoniae ATCC700603, read-out: MIC
[10] = ATCC25922, ESBL −ve E. coli ATCC25922, read-out: MIC

| SMILES | MIC [1, 6] [mg/L] | MIC [2, 7] [mg/L] | MIC [3, 8] [mg/L] | MIC [4, 9] [mg/L] | MIC [5, 10] [mg/L] | MIC ([1]; ATCC27853) [mg/L] | MIC [2] [mg/L] | MIC ([3]; ATCCBAA1705) [mg/L] | MIC [4] [mg/L] | MIC ([5]; ATCC25922) [mg/L] |
| --- | --- | --- | --- | --- | --- | --- | --- | --- | --- | --- |
| CN[C@H]1CCN(C(=O)[C@@H]2C[C@H](SC3=C(C(=O)O)N4C(=O)[C@H]([C@@H](C)NC(=O)C(F)F)[C@H]4[C@H]3C)CN2)C1 [Example 106] | 4 (≈ 7.76 µM) | 4 (≈ 7.76 µM) | 4 (≈ 7.76 µM) | 4 (≈ 7.76 µM) | 1 (≈ 1.94 µM) | – | – | – | – | – |
| CNCC(=O)N[C@H](C)[C@H]1C(=O)N2C(C(=O)O)=C(S[C@@H]3CN[C@H](C(=O)N4C[C@@H](N)C[C@H]4CN)C3)[C@H](C)[C@H]12 [Example 191] | 32 (≈ 61.1 µM) | 64 (≈ 122 µM) | 8 (≈ 15.3 µM) | 32 (≈ 61.1 µM) | 8 (≈ 15.3 µM) | – | – | – | – | – |
| C[C@@H](NS(=O)(=O)c1ccc(F)cc1)[C@H]1C(=O)N2C(C(=O)O)=C(S[C@@H]3CN[C@H](C(=O)N(C)C)C3)[C@H](C)[C@H]12 [Example 12] | > 128 | 8 (≈ 14.8 µM) | 32 (≈ 59.2 µM) | 128 (≈ 237 µM) | 4 (≈ 7.4 µM) | – | – | – | – | – |
| C[C@@H](NC(=O)CN(C)C)[C@H]1C(=O)N2C(C(=O)O)=C(S[C@@H]3CN[C@H](C(=O)N(C)C)C3)[C@H](C)[C@H]12 [Example 100] | 32 (≈ 68.4 µM) | 16 (≈ 34.2 µM) | 4 (≈ 8.55 µM) | 8 (≈ 17.1 µM) | 1 (≈ 2.14 µM) | – | – | – | – | – |
| COP(=O)(CC(=O)N[C@H](C)[C@H]1C(=O)N2C(C(=O)O)=C(S[C@@H]3CN[C@H](C(=O)N(C)C)C3)[C@H](C)[C@H]12)OC [Example 91] | – | – | – | – | – | > 128 | 16 (≈ 30 µM) | 32 (≈ 60.1 µM) | 32 (≈ 60.1 µM) | 4 (≈ 7.51 µM) |
| C[C@@H](NC(=O)C(F)F)[C@H]1C(=O)N2C(C(=O)O)=C(S[C@@H]3CN[C@H](C(=O)N4CC[C@H](NC(=O)CC#N)C4)C3)[C@H](C)[C@H]12 [Example 119] | 16 (≈ 28.1 µM) | 2 (≈ 3.52 µM) | 8 (≈ 14.1 µM) | 1 (≈ 1.76 µM) | 0.5 (≈ 0.879 µM) | – | – | – | – | – |

Now from value to molecule, other results behind:

| MIC [1, 6] [mg/L] | MIC [2, 7] [mg/L] | MIC [3, 8] [mg/L] | MIC [4, 9] [mg/L] | MIC [5, 10] [mg/L] | SMILES | MIC ([1]; ATCC27853) [mg/L] | MIC [2] [mg/L] | MIC ([3]; ATCCBAA1705) [mg/L] | MIC [4] [mg/L] | MIC ([5]; ATCC25922) [mg/L] |
| --- | --- | --- | --- | --- | --- | --- | --- | --- | --- | --- |
| 64 (≈ 124 µM) | 32 (≈ 61.9 µM) | 8 (≈ 15.5 µM) | 32 (≈ 61.9 µM) | 1 (≈ 1.94 µM) | C[C@@H](NC(=O)[C@H]1CCCN1)[C@H]1C(=O)N2C(C(=O)O)=C(S[C@@H]3CN[C@H](CNS(N)(=O)=O)C3)[C@H](C)[C@H]12 [Example 226] | – | – | – | – | – |
| 64 (≈ 109 µM) | 4 (≈ 6.82 µM) | 8 (≈ 13.6 µM) | 8 (≈ 13.6 µM) | 1 (≈ 1.7 µM) | C[C@@H](NC(=O)C(F)F)[C@H]1C(=O)N2C(C(=O)O)=C(S[C@@H]3CN[C@H](C(=O)N(C)[C@@H]4CN[C@H](C(=O)N(C)C)C4)C3)[C@H](C)[C@H]12 [Example 172] | – | – | – | – | – |
| 16 (≈ 31 µM) | 2 (≈ 3.88 µM) | 4 (≈ 7.76 µM) | 4 (≈ 7.76 µM) | 1 (≈ 1.94 µM) | C[C@@H](NC(=O)C(F)F)[C@H]1C(=O)N2C(C(=O)O)=C(S[C@@H]3CN[C@H](C(=O)N(C)[C@H]4CCNC4)C3)[C@H](C)[C@H]12 [Example 134] | – | – | – | – | – |
| 128 (≈ 220 µM) | 16 (≈ 27.6 µM) | 4 (≈ 6.89 µM) | 1 (≈ 1.72 µM) | 0.5 (≈ 0.861 µM) | C[C@@H](NS(C)(=O)=O)[C@H]1C(=O)N2C(C(=O)O)=C(S[C@@H]3CN[C@H](C(=O)N4CC[C@@H](NS(N)(=O)=O)C4)C3)[C@H](C)[C@H]12 [Example 203] | – | – | – | – | – |
| 8 (≈ 19.5 µM) | 16 (≈ 39.1 µM) | 64 (≈ 156 µM) | 1 (≈ 2.44 µM) | 0.5 (≈ 1.22 µM) | C[C@@H](NC=N)[C@H]1C(=O)N2C(C(=O)O)=C(S[C@@H]3CN[C@H](C(=O)N(C)C)C3)[C@H](C)[C@H]12 [Example 48] | – | – | – | – | – |
